Measurements published in US20030175912A1, “Method of producing L-serine by fermentation” (AJINOMOTO CO. INC, priority 1998, published 2003).

Experiments:
[1] = system: Brevibacterium flavum AJ13325; experiment: Growth in the presence of β-(2-thienyl)-DL-alanine; type: cell-based; conditions: 0.25 g/L of β-(2-thienyl)-DL-alanine
Experimental: Similarly, the term “β-(2-thienyl)-DL-alanine resistance” refers to the property that a bacterium grows faster than the wild type in a medium containing β-(2-thienyl)-DL-alanine. For example, those strains that form colonies on a solid medium containing 0.25 g/L of β-(2-thienyl)-DL-alanine at 30° C. within 4 to 5 days are said to have β-(2-thienyl)-DL-alanine resistance.
(§1) To select β-(2-thienyl)-DL-alanine resistant strains from NG treated strains using Brevibacterium flavum AJ13377 as a parent strain, Brevibacterium flavum AJ13377 cells were NG treated and washed before their inoculation on a minimal medium for selection. The minimal medium for selection was a medium that contained 20 g of glucose, 1 g of ammonium sulfate, 1 g of potassium dihydrogen phosphate, 2.5 g of urea, 0.4 g of magnesium sulfate heptahydrate, 0.01 g of iron (II) sulfate heptahydrate, 0.01 g of manganese sulfate tetra- to pentahydrate, 50 μg of biotin, 200 μg of thiamin hydrochloride, 200 μg of nicotinic acid amide, and 250 mg of β-(2-thienyl)-DL-alanine per liter of distilled water. The NG treated mutant was incubated in the above-described medium at 30° C. for 5 to 10 days. The cell culture thus obtained was spread on a bouillon agar medium and incubated at 30° C. for 24 hours for colony formation. β-(2-Thienyl)-DL-alanine resistant strains were obtained from the strains that formed colonies. […]

[2] = system: 3-PGDH derived from AJ13377 strain; experiment: Feedback inhibition of 3-PGDH by L-serine, enzyme of AJ13377; type: biochemical, Brevibacterium flavum; conditions: compared with wild type strain ATCC 14067; FIG. 1
Experimental: (§2) After collecting cells from the culture broth of each strain, the cells were washed twice with physiological saline and suspended in 50 mM sodium phosphate buffer (pH 7.0) containing 2 mM dithiothreitol. After ice cooling, the suspension was subjected to a sonicator to fragment the cells and the resulting liquid was ultracentrifuged. The ultracentrifugaton was run at 45,000 rpm for 1 hour to obtain a crude enzyme solution.
(§3) The enzyme activity of 3-PGDH was measured by the method of Salach H. J. et al. (Method in Enzymology, vol 9, 216-220 (1966)).
(§4) More specifically, 0.4 ml of 0.015 M NAD, 0.12 ml of 0.25 M EDTA (pH 9, NaOH), 0.1 ml of 0.05 M glutathione (pH 6, KOH), 0.5 ml of 1 M hydrazine (pH 9, acetate), 0.6 ml of 1 M Tris (pH 9, HCl), a suitable concentration of L-serine (0 to 40 mM), and water to make 2.3 ml, warmed to 25° C. in advance, were added. Then, 0.2 ml of the crude enzyme solution was added and the temperature was kept the same for 5 minutes. Thereafter, 0.5 ml of 0.1 M 3-PGA (3-phosphoglycerate disodium salt, pH 7, NaOH) was added. After stirring, the absorbance at 340 nm of the reaction mixture was measured for 30 seconds. The reaction was carried out at 25° C.
(§5) For the measurement of activity, Hitachi U-2000A spectrophotometer was used.

[3] = system: 3-PGDH derived from Brevibacterium flavum AJ13327; experiment: Feedback inhibition of 3-PGDH by L-serine, enzyme of AJ13327; type: biochemical
Experimental: as §2, §3
[…] Then, 0.2 ml of the crude enzyme solution was added and the temperature was kept the same for 5 minutes. Thereafter, 0.5 ml of 0.1 M 3-PGA (3-phosphoglycerate disodium salt, pH 7, NaOH) was added. After stirring, the absorbance at 340 nm of the reaction mixture was measured for 30 seconds. The reaction was carried out at 25° C.
as §5

[4] = system: 3-PGDH derived from a wild type coryneform bacterium (ATCC 14067); experiment: Feedback inhibition of 3-PGDH by L-serine, enzyme of wild type strain; type: biochemical, Brevibacterium flavum; conditions: 10 mM of L-serine
Experimental: as §2, §3, §4, §5

[5] = system: 3-PGDH derived from AJ13325 strain; experiment: Feedback inhibition of 3-PGDH by L-serine, enzyme of AJ13325; type: biochemical, Brevibacterium flavum; conditions: compared with AJ13324; FIG. 1
Experimental: as §2, §3, §4, §5

[6] = system: 3-PGDH derived from AJ13324 strain; experiment: Feedback inhibition of 3-PGDH by L-serine, enzyme of AJ13324; type: biochemical, Brevibacterium flavum; conditions: compared with AJ13377; FIG. 1
Experimental: as §2, §3, §4, §5

[7] = system: Brevibacterium flavum AJ13324 and AJ13327; experiment: Growth in the presence of azaserine; type: cell-based; conditions: 0.25 g/L of azaserine
Experimental: More specifically, for example, the term “azaserine resistance” refers to the property that a bacterium grows faster than the wild type in a medium containing azaserine. For example, those strains that form colonies on a solid medium containing 0.25 g/L of azaserine at 30° C. within 4 to 5 days are said to have azaserine resistance.
as §1, with “azaserine” for “β-(2-thienyl)-DL-alanine”, “strain, NG treated” for “strain,”, “cells after washed” for “cells”, “inoculated” for “NG treated and washed before their inoculation”, “Azaserine” for “β-(2-Thienyl)-DL-alanine”, “colonies. The mutants thus obtained included many strains that accumulated L-serine in considerable amounts at high yields.” for “colonies.”

NC(Cc1cccs1)C(=O)O (racemic) [β-(2-thienyl)-DL-alanine]
growth of resistant strains in the presence of β-(2-thienyl)-DL-alanine [1]: able to grow

N[C@@H](CO)C(=O)O [L-serine]
L-serine sensitivity of 3-PGDH [2]: relieved of L-serine sensitivity
feedback inhibition of 3-PGDH by L-serine ([3]; 80 mM L-serine, FIG. 1): completely desensitized
3-PGDH activity retained in the presence of L-serine ([3]; 80 mM of L-serine, relative to activity in the absence of L-serine): ~100%
inhibition of 3-PGDH activity by L-serine [4]: almost completely inhibited
L-serine sensitivity of 3-PGDH [5]: of the same level as the AJ13324 strain
L-serine sensitivity of 3-PGDH [6]: more relieved of L-serine sensitivity

[N-]=[N+]=CC(=O)OC[C@H](N)C(=O)O [azaserine]
growth of resistant strains in the presence of azaserine [7]: able to grow
